US20230150951A1, “2,5- OR 2,6-DISUBSTITUTED HYDROQUINONE DERIVATIVES WITH AT LEAST ONE CARBOXY, SULFO OR AMIDO GROUP USEFUL AS MEDICAMENTS” (OM PHARMA SA, priority 2020, published 2023)
Where two headings read alike, the source gives them in different places.

Assays:
Type in all cases: cell-based
FGF-2 = target: T1, FGF-2 (Homo sapiens, UniProt P09038); assay: FGF-2 induced sprouting of HUVEC, spheroid-based cellular angiogenesis assay; conditions: FGF-2 25 ng/mL preincubated with compound, 24 h
T1 construct: purchased Peprotech 100-18C
T1 sequence (P09038 134-288): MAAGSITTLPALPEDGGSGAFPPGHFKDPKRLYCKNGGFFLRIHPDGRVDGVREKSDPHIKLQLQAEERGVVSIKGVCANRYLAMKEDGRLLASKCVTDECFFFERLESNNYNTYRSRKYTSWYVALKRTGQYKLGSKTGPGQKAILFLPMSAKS
Outline: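 Compound (final 100 down to 1.56×10^−6 M) was mixed with growth factor (final 25 ng/mL) for 30 min at 37°C, then added onto collagen-embedded 400-cell HUVEC spheroids.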

IL-6 = assay: Cytokine release after LPS induction on human whole blood: IL-6
Procedure: (§1) Aim of this in vitro method is to assess compounds effects on release of a panel of cytokines from whole blood following lipopolysaccharide (LPS) induced inflammatory reaction. Whole blood was incubated with compounds for 1 h prior to LPS induction. Cytokine levels in blood were measured using a multiplex FACS-based panel.
(§2) IC50 values determined for the tested compounds expressed in microM [μM] and the values for the inhibition of cytokines were listed for each compound.
(§3) Effect on cytokines release after LPS induction was performed on the compounds dissolved in DMSO or H2O to reach 10-fold concentrated stock solutions and dissolved in culture media.
(§4) Test system: Whole blood was removed from a single donor (into lithium heparin coated tubes; BD Vacutainer; 367886) and diluted 1:5 with RPMI 1640 (Thermo Fisher, 61870036). Within 30 minutes of sampling, blood was incubated with compounds for 1 h prior to LPS stimulation (O111:B4—Sigma L4391; 10 ng/ml final concentration). Stimulation continued under standard cell culture conditions (37° C. with 5% CO2) overnight (18 h), after which plates were centrifuged and supernatant removed and frozen at −80° C. until used for analyses.
(§5) Dilution of test compounds: 10×concentrated solutions (concerning to the final assay concentrations) of each test compound were prepared with the appropriate solvent (in DMSO or in water). These 10× compound solutions (10 μl) were then added to 90 μl pre-diluted whole blood (whole blood: RPMI1640, 1:5) resulting in the final assay concentration.
(§6) Test method: Diluted whole blood (80 μl) was pre-incubated with compounds (10 μl) to give final assay concentrations of 100, 30, 10, 3, 1, 0.3 and 0.1×10^−6M. Blood was incubated at 37° C. with 5% CO2 for 1 h. LPS was diluted in cell culture media to a concentration of […]; 10 μl was added to the whole blood to give a final concentration of 10 ng/ml. Plates were incubated at 37° C. for 18 h. Plates were centrifuged at 3,000 RPM for 5 minutes at 4° C. and supernatant removed and frozen at −80° C. until FACS analysis was carried out.
(§7) Cytokine release was measured using a custom multiplex system (ELISA Genie) according to manufacturers instructions. Prepared samples were run on an Attune NxT flow cytometer (Thermo Fisher).
(§8) Quantification of cytokine release inhibition: known concentration standards were run as part of the cytokine panel to allow quantification of each cytokine concentration in each sample. This was carried out using FCAP Array v3.0 software.
(§9) Results: The dose response relationship on cytokine release following LPS induction of inflammatory response in whole blood was assessed for all compounds. IC50 values were determined for each compound for a panel of cytokines (GM-CSF, IFN-gamma, IL-1beta, IL-2, IL-4, IL-5, IL-6, IL-8, IL-9, IL-10, IL-12p40, IL-13, IL-17A, IL-17F, IL-18, IL-21, IL-22, IL-33, TGF-beta, TNF-alpha, TNF-beta).

IL-17F = assay: Cytokine release after LPS induction on human whole blood: IL-17F
Procedure: as §1, §2, §3, §4, §5, §6, §7, §8, §9

[1] = Homo sapiens, LPS 10 ng/ml, 18 h, read-out: Whole Blood: IL-6 IC50
[2] = human whole blood, inhibition of LPS induced inflammation, read-out: IC50 IL-6
[3] = Homo sapiens, LPS 10 ng/ml, 18 h, read-out: Whole Blood: IL-17F IC50
[4] = human whole blood, inhibition of LPS induced inflammation, read-out: IC50 IL-17F

IC50 (FGF-2) [nM]	IC50 (IL-6; [1]) [nM]	IC50 (IL-6; [2]) [nM]	IC50 (IL-17F; [3]) [nM]	IC50 (IL-17F; [4]) [nM]	Compound	IC50 (IL-6; Homo sapiens, 18 h, read-out: Whole Blood: IL-6 IC50) [nM]	IC50 (IL-6; Homo sapiens, read-out: IC50 IL-6) [nM]	IC50 (IL-17F; Homo sapiens, 18 h, read-out: Whole Blood: IL-17F IC50) [nM]	IC50 (IL-17F; Homo sapiens, read-out: IC50 IL-17F) [nM]
9300	770	770	150	150	O=C(O)c1cc(NC(=O)c2cc(O)c(C(=O)O)cc2O)cc(C(=O)O)c1 [Ia-015a, 5-(4-carboxy-2,5-dihydroxybenzamido)isophthalic acid]	–	–	–	–
4900	210	210	86800	86800	O=C(O)c1cc(O)cc(CSCc2cc(O)cc(C(=O)O)c2O)c1O [IVc-058a, 3-((2,5-Dihydroxy-3-carboxyphenyl)methylthiomethyl)-2,5-dihydroxybenzoic acid]	–	–	–	–
7600	180	180	320	320	O=C(O)c1cc(O)c(CN(Cc2cc(O)c(C(=O)O)cc2O)Cc2cc(O)c(C(=O)O)cc2O)cc1O [IIIc-061a, Tris(4-carboxy-2,5-dihydroxyphenylmethyl)amine]	–	–	–	–
3800	1020	1020	> 100000	100000	O=C(O)c1cc(NC(=O)c2cc(O)c(C(=O)O)cc2O)cc(NC(=O)c2cc(O)c(C(=O)O)cc2O)c1 [Ib-010a, 3,5-bis(2,5-dihydroxy-4-carboxybenzoylamino)benzoic acid]	–	–	–	–
13000	950	950	89700	89700	O=C(O)c1cc(O)c(C(=O)Nc2ccccc2S(=O)(=O)O)cc1O [Ia-001c, 2,5-dihydroxy-4-(2-sulfophenylaminocarbonyl)benzoic acid]	–	–	–	–
14000	1980	1980	160	160	O=C(O)Cc1cc(O)c(C(=O)Nc2ccccc2-c2nnn[nH]2)cc1O [IIIa-001aTz]	–	–	–	–
≥ 200000	990	990	25800	25800	COC(=O)c1cc(OC(C)=O)cc(CS(=O)(=O)Cc2cc(OC(C)=O)cc(C(=O)OC)c2OC(C)=O)c1OC(C)=O [IVc-059a-E2-A4]	–	–	–	–
70000	520	–	150	–	O=C(Nc1ccccc1-c1nnn[nH]1)c1cc(O)c(C(=O)Nc2ccccc2-c2nnn[nH]2)cc1O [Ic-001aTz2, N1,N4-bis(2-(1H-tetrazol-5-yl)phenyl)-2,5-dihydroxyterephthalamide]	–	–	–	–
2700	110	110	> 100000	100000	O=C(O)c1cc(O)cc(CS(=O)(=O)Cc2cc(O)cc(C(=O)O)c2O)c1O [IVc-059a, 3-((2,5-Dihydroxy-3-carboxyphenyl)methylsulfonylmethyl)-2,5-dihydroxybenzoic acid]	–	–	–	–
–	270	270	130	130	O=C(O)c1cc(O)ccc1NC(=O)c1cc(O)cc(C(=O)Nc2ccc(O)cc2C(=O)O)c1O [IIc-009a, 2-(3-(2-carboxy-4-hydroxyphenylaminocarbonyl)-2,5-dihydroxybenzamido)-5-hydroxyl benzoic acid]	–	–	–	–
39000	1240	1240	14700	14700	O=C(O)c1cc(O)c(C(=O)Nc2ccccc2C(=O)O)cc1O [Ia-001a, 4-(2-carboxyphenylaminocarbonyl)-2,5-dihydroxybenzoic acid]	–	–	–	–
–	240	240	34200	34200	CCOC(=O)c1cc(NC(=O)c2cc(O)c(C(=O)OCC)cc2O)cc(NC(=O)c2cc(O)c(C(=O)OCC)cc2O)c1 [Ib-010a-E3, ethyl 3,5-bis(2,5-dihydroxy-4-ethoxycarbonylbenzoylamino)benzoate]	–	–	–	–
18000	2200	2200	28800	28800	O=C(O)c1ccccc1CNC(=O)c1cc(O)cc(C(=O)O)c1O [IIa-053a, 3-(2-Carboxyphenylmethylaminocarbonyl)-2,5-dihydroxybenzoic acid]	–	–	–	–
20000	750	750	46500	46500	O=C(O)c1cc(O)c(C(=O)Nc2ccccc2-c2nnn[nH]2)cc1O [Ia-001a-Tz, 4-(2-(1H-tetrazol-5-yl)phenyl-aminocarbonyl)-2,5-dihydroxybenzoic acid]	–	–	–	–
77000	190	190	5060	5060	CC(=O)N(Cc1cc(O)c(C(=O)O)cc1O)Cc1cc(O)c(C(=O)O)cc1O [IIIc-057a, N,N-Bis(4-carboxy-2,5-dihydroxyphenylmethyl)acetamide]	–	–	–	–
45000	1410	1410	83900	83900	O=C(O)c1cc(O)c(C(=O)Nc2ccc(-c3nnn[nH]3)cc2)cc1O [Ia-003a-Tz, 4-(4-(1H-tetrazol-5-yl)phenyl-aminocarbonyl)-2,5-dihydroxybenzoic acid]	–	–	–	–
31000	3550	3550	410	410	O=C(O)Cc1cc(O)c(C(=O)Nc2c(C(=O)O)cccc2C(=O)O)cc1O [IIIa-013a, 2-(4-(carboxymethyl)-2,5-dihydroxybenzamido)isophthalic acid]	–	–	–	–

Compound	IC50 (FGF-2) [nM]	IC50 (IL-6; [1]) [nM]	IC50 (IL-6; [2]) [nM]	IC50 (IL-17F; [3]) [nM]	IC50 (IL-17F; [4]) [nM]	IC50 (IL-6; Homo sapiens, 18 h, read-out: Whole Blood: IL-6 IC50) [nM]	IC50 (IL-6; Homo sapiens, read-out: IC50 IL-6) [nM]	IC50 (IL-17F; Homo sapiens, 18 h, read-out: Whole Blood: IL-17F IC50) [nM]	IC50 (IL-17F; Homo sapiens, read-out: IC50 IL-17F) [nM]
O=C(O)c1cc(NC(=O)c2cc(O)c(C(=O)Nc3ccccc3-c3nnn[nH]3)cc2O)ccc1O [Ic-001a-Tz/004a, 5-(4-(2-(1H-tetrazol-5-yl)phenylaminocarbonyl)-2,5-dihydroxybenzamido)-2-hydroxy benzoic acid]	87000	–	–	–	–	3040	3040	2400	2400
O=C(O)c1cc(NC(=O)c2cc(O)cc(C(=O)Nc3ccc(O)c(C(=O)O)c3)c2O)ccc1O [IIc-007a, 5-(3-(3-carboxy-4-hydroxyphenylaminocarbonyl)-2,5-dihydroxybenzamido)-2-hydroxy benzoic acid]	91000	50	50	260	260	–	–	–	–
O=C(O)c1cc(NC(=O)c2cc(O)c(C(=O)Nc3ccc(O)c(C(=O)O)c3)cc2O)ccc1O [Ic-007a, 5-(4-(3-carboxy-4-hydroxyphenylaminocarbonyl)-2,5-dihydroxybenzamido)-2-hydroxy benzoic acid]	–	90	90	22900	22900	–	–	–	–
